# Test results reported in patent US20230026259A1, “CA2 COMPOSITIONS AND METHODS FOR TUNABLE REGULATION” (Obsidian Therapeutics, Inc., priority 2019, published 2023).
# How the values were obtained:
# Type in all cases: cell-based
# NIH3T3 cells = assay: Destabilization mutant screening of human CA2 linked to GFP, ligand response by FACS (Valdecoxib, Celecoxib, Acetazolamide)
# Method: To identify destabilizing mutations of human CA2 that are stabilized upon ligand binding to CA2, two rounds of mutant screening were performed, using a lentivirus CA2 mutant library provided by Genscript (China). These methods were used to generate a library of mutant polypeptides using mutagenesis primers and error prone PCR. Lentiviral vectors expressing the template, wild-type human CA2 operably linked to GFP(OT-001986) was also provided by Genscript along with the CA2 mutant library. The library was packaged into lentivirus, transduced into NIH3T3 cells at a multiplicity of infection (MOI) of approximately 0.3 and select stable cell pools were derived by selecting with selection marker puromycin.
# To identify cell pools containing destabilizing mutants of CA2 that are stabilizing when CA2 is bound to its corresponding ligand, cells were sorted using FACS. In the initial round, the bottom 15% of population that was GFP negative in the absence of ligand was selected. Cells were expanded and then treated with 10 μM Celecoxib for 24 hours and harvested for cell sorting. The top 11% GFP positive cells which were also responsive to ligand treatment compared to untreated were collected. Celecoxib was removed from the cultures and replaced with DMSO. […] Genomic DNA was isolated and amplified CA2 mutants were reintroduced to the lentiviral vectors where CA2 was operably linked to GFP. The constructs were transduced into NIH3T3 cells with lentivirus vectors for each clone. The cells were treated with 10 μM Valdecoxib or 10 μM Celecoxib for 24 hours and analyzed by FACS. […] In Table 25, the Construct ID (OT-XXXXXX) refers to the construct which includes the referenced CA2 mutant and the Library ID (LibCXXXXXX) refers to the CA2 mutant itself.
# The response of NIH3T3 cells to varying doses of Valdecoxib or Celecoxib for 24 hours was measured and analyzed by FACS.
# Clones treated with different ligands were compared to examine the behavior of each mutant with the ligands.
# human primary T cells [1] = assay: Expression of IL15 chimeric constructs by flow cytometry (percent IL15 positive cells); conditions: for percentage of IL15 positive cells: human primary T cells, day 6, no ligand stated
# Text: In vitro activity of IL15 chimeric constructs OT-002019 ((Met; CD34 (aa 1-32 of WT, M1G, S32A); IL15 (30-162 of WT); Linker ((GS)15); CD8a Hinge and Transmembrane Domain; Linker (GS); stop), amino acid SEQ ID NO: 210876, nucleic acid SEQ ID NO: 210877) and OT-002090 ((Ig Kappa light chain leader; IL15 (49-162 of WT); Linker ((GS)15); B7-1 Hinge, Transmembrane Domain and Tail; Linker (GS); stop), amino acid SEQ ID NO: 210878, nucleic acid SEQ ID NO: 210879) and CA2 regulated IL15 chimeric construct (OT-002094) were tested in human primary T cells. Human primary T cells were transduced with lentivirus 24 hours after activation with CD3/CD28 beads. Cells were expanded for 10 days. […] The percentage of IL15 positive cells obtained for each treatment group is as follows (a) OT-002019: 82.3% (b) OT-002090: 43.6% (c) OT-002094 with DMSO: 0.7% (d) OT-002094 with 10 μM Acz: 27.9% and (e) untransduced (UT): 0.3%.
# (§1) To test IL15-dependent expansion, beads were removed on day 10 and cells were washed. […] The T cell numbers (Table 30) and the change in CD4/CD8 ratio (Table 31) were determined by flow cytometry.
# human primary T cells [2] = assay: IL15-dependent expansion: T cell numbers and CD4/CD8 ratio by flow cytometry
# Method: as §1
# [3] = NIH3T3, 10 μM Celecoxib vs DMSO
# [4] = NIH3T3, 10 μM Valdecoxib vs DMSO
# [5] = day 0 in culture, untransduced T cells + exogenous IL15 1 ng/ml
# [6] = day 3 in culture, untransduced T cells + exogenous IL15 1 ng/ml
# [7] = day 7 in culture, untransduced T cells + exogenous IL15 1 ng/ml
# [8] = day 10 in culture, untransduced T cells + exogenous IL15 1 ng/ml
substance,measurement,setting,value
"CA2 (aa 2-260 of WT, N61R, K80M, K212N, N231T, L250P) [LibC000198]",Median PE,"NIH3T3 cells; NIH3T3, 10 μM Celecoxib",535
same,SR (stabilization ratio),NIH3T3 cells; [3],1.95
same,Median PE,"NIH3T3 cells; NIH3T3, 10 μM Valdecoxib",552
same,SR (stabilization ratio),NIH3T3 cells; [4],2
same,Median PE,"NIH3T3 cells; NIH3T3, DMSO",275
same,SR (stabilization ratio),"NIH3T3 cells; NIH3T3, DMSO (reference)",1
"CA2 (aa 2-260 of WT, T35I, Y114H, P154L, D161V, P200A, F225L, E233D, W244*) [LibC000188]",Median PE,"NIH3T3 cells; NIH3T3, 10 μM Celecoxib",225
same,SR (stabilization ratio),NIH3T3 cells; [3],1.09
same,Median PE,"NIH3T3 cells; NIH3T3, 10 μM Valdecoxib",228
same,SR (stabilization ratio),NIH3T3 cells; [4],1.11
same,Median PE,"NIH3T3 cells; NIH3T3, DMSO",206
same,SR (stabilization ratio),"NIH3T3 cells; NIH3T3, DMSO (reference)",1
"(Ig Kappa light chain leader; IL15 (49-162 of WT); Linker ((GS)15); B7-1 Hinge, Transmembrane Domain and Tail; Linker (GS); stop) [OT-002090]",Percent of cells IL15 positive,"human primary T cells [1]; day 0 in culture, media alone",30%
same,Percent of cells IL15 positive,"human primary T cells [1]; day 3 in culture, media alone",40%
same,Percent of cells IL15 positive,"human primary T cells [1]; day 7 in culture, media alone",38%
same,Percent of cells IL15 positive,"human primary T cells [1]; day 10 in culture, media alone",16%
same,percentage of IL15 positive cells,human primary T cells [1],43.6%
same,CD4/CD8 Ratio,"human primary T cells [2]; day 0 in culture, media alone",3.79
same,T Cell Numbers,"human primary T cells [2]; day 0 in culture, media alone",1.0E+06
same,CD4/CD8 Ratio,"human primary T cells [2]; day 3 in culture, media alone",0.66
same,T Cell Numbers,"human primary T cells [2]; day 3 in culture, media alone",1.3E+06
same,CD4/CD8 Ratio,"human primary T cells [2]; day 7 in culture, media alone",0.09
same,T Cell Numbers,"human primary T cells [2]; day 7 in culture, media alone",4.1E+06
same,CD4/CD8 Ratio,"human primary T cells [2]; day 10 in culture, media alone",0.04
same,T Cell Numbers,"human primary T cells [2]; day 10 in culture, media alone",1.0E+07
IL15,Percent of cells IL15 positive,human primary T cells [1]; [5],0%
same,Percent of cells IL15 positive,human primary T cells [1]; [6],1%
same,Percent of cells IL15 positive,human primary T cells [1]; [7],0%
same,Percent of cells IL15 positive,human primary T cells [1]; [8],1%
same,CD4/CD8 Ratio,human primary T cells [2]; [5],5.64
same,T Cell Numbers,human primary T cells [2]; [5],1.0E+06
same,CD4/CD8 Ratio,human primary T cells [2]; [6],2.57
same,T Cell Numbers,human primary T cells [2]; [6],3.2E+06
same,CD4/CD8 Ratio,human primary T cells [2]; [7],0.64
same,T Cell Numbers,human primary T cells [2]; [7],5.4E+06
same,CD4/CD8 Ratio,human primary T cells [2]; [8],0.28
same,T Cell Numbers,human primary T cells [2]; [8],1.2E+07
"(Met; CD34 (aa 1-32 of WT, M1G, S32A); IL15 (30-162 of WT); Linker ((GS)15); CD8a Hinge and Transmembrane Domain; Linker (GS); stop) [OT-002019]",Percent of cells IL15 positive,"human primary T cells [1]; day 0 in culture, 3 uM ACZ",75%
same,Percent of cells IL15 positive,"human primary T cells [1]; day 0 in culture, 10 uM ACZ",75%
same,Percent of cells IL15 positive,"human primary T cells [1]; day 0 in culture, media alone",75%
same,Percent of cells IL15 positive,"human primary T cells [1]; day 3 in culture, 3 uM ACZ",82%
same,Percent of cells IL15 positive,"human primary T cells [1]; day 3 in culture, 10 uM ACZ",82%
same,Percent of cells IL15 positive,"human primary T cells [1]; day 3 in culture, media alone",82%
same,Percent of cells IL15 positive,"human primary T cells [1]; day 7 in culture, 3 uM ACZ",84%
same,Percent of cells IL15 positive,"human primary T cells [1]; day 7 in culture, 10 uM ACZ",85%
same,Percent of cells IL15 positive,"human primary T cells [1]; day 7 in culture, media alone",84%
same,Percent of cells IL15 positive,"human primary T cells [1]; day 10 in culture, 3 uM ACZ",78%
same,Percent of cells IL15 positive,"human primary T cells [1]; day 10 in culture, 10 uM ACZ",79%
same,Percent of cells IL15 positive,"human primary T cells [1]; day 10 in culture, media alone",76%
same,percentage of IL15 positive cells,human primary T cells [1],82.3%
same,CD4/CD8 Ratio,"human primary T cells [2]; day 0 in culture, 3 uM ACZ",2.51
same,T Cell Numbers,"human primary T cells [2]; day 0 in culture, 3 uM ACZ",1.0E+06
same,CD4/CD8 Ratio,"human primary T cells [2]; day 0 in culture, 10 uM ACZ",2.51
same,T Cell Numbers,"human primary T cells [2]; day 0 in culture, 10 uM ACZ",1.0E+06
same,CD4/CD8 Ratio,"human primary T cells [2]; day 0 in culture, media alone",2.51
same,T Cell Numbers,"human primary T cells [2]; day 0 in culture, media alone",1.0E+06
same,CD4/CD8 Ratio,"human primary T cells [2]; day 3 in culture, 3 uM ACZ",0.46
same,T Cell Numbers,"human primary T cells [2]; day 3 in culture, 3 uM ACZ",1.7E+06
same,CD4/CD8 Ratio,"human primary T cells [2]; day 3 in culture, 10 uM ACZ",0.47
same,T Cell Numbers,"human primary T cells [2]; day 3 in culture, 10 uM ACZ",1.7E+06
same,CD4/CD8 Ratio,"human primary T cells [2]; day 3 in culture, media alone",0.45
same,T Cell Numbers,"human primary T cells [2]; day 3 in culture, media alone",2.0E+06
same,CD4/CD8 Ratio,"human primary T cells [2]; day 7 in culture, 3 uM ACZ",0.06
same,T Cell Numbers,"human primary T cells [2]; day 7 in culture, 3 uM ACZ",5.7E+06
same,CD4/CD8 Ratio,"human primary T cells [2]; day 7 in culture, 10 uM ACZ",0.07
same,T Cell Numbers,"human primary T cells [2]; day 7 in culture, 10 uM ACZ",5.6E+06
same,CD4/CD8 Ratio,"human primary T cells [2]; day 7 in culture, media alone",0.06
same,T Cell Numbers,"human primary T cells [2]; day 7 in culture, media alone",6.7E+06
same,CD4/CD8 Ratio,"human primary T cells [2]; day 10 in culture, 3 uM ACZ",0.02
same,T Cell Numbers,"human primary T cells [2]; day 10 in culture, 3 uM ACZ",1.7E+07
same,CD4/CD8 Ratio,"human primary T cells [2]; day 10 in culture, 10 uM ACZ",0.03
same,T Cell Numbers,"human primary T cells [2]; day 10 in culture, 10 uM ACZ",1.6E+07
same,CD4/CD8 Ratio,"human primary T cells [2]; day 10 in culture, media alone",0.02
same,T Cell Numbers,"human primary T cells [2]; day 10 in culture, media alone",2.1E+07
